We go through 14 molecules from paper PMC6522510 (Nature Communications, 2019).

Each structure is given as a SMILES string. Structures can show the parent of a compound that is named as a salt. Where two headings read alike, the source gives them in different places. Numbered stars: 1 amine (or outer) side, 2 acyl side, 3 side chain; on linkers, the order of the positions; unused ones are H or OH. Peptide text beside a SMILES is read from it. CO = O=C([*:1])[*:2]

Test systems include M07e; MV4-11; U937; CMK; CMS; MOLM-13; ML-2; CHRF288-11.
What all share (design): species or system AML cell lines (8); Primary HTS, single concentration about 10 uM, Cell Titer Glo viability; log10 luminescence, per cent inhibition relative to cycloheximide control
Common to all, as to conditions: 72 h, relative to cycloheximide control, log10 luminescence, inhibitor
(In general: ATP-based viability assays read luminescence as a measure of living cells.)

Turning to `Nc1ncnc2occ(-c3ccc(NC(=O)Nc4cc(C(F)(F)F)ccc4F)cc3)c12` [SJ000573048-2, CL210513-029A3 | T299/89/1 | YF46626-103A2], the M07e %inh with M07e (M07e %inh, 10 µM) turned out to be 28.03%. For the same molecule, the MV4-11 %inh in the experiment with MV4-11 (MV4-11 %inh, 10 µM) came to 78.92%. The U937 %inh in the experiment with U937 (U937 %inh, 10 µM) was 50.36%. Also, the CMK %inh with CMK (CMK %inh, 10 µM) is reported as 82.88%. In addition, the CMS %inh in the experiment on CMS (CMS %inh, 10 µM) came out at 10.62%. Besides, the MOLM-13 %inh with MOLM-13 (MOLM-13 %inh, 10 µM) is given as 99.82%. Moreover, in the experiment with ML-2 (ML-2 %inh, 10 µM), the ML-2 %inh is 4.549%. The CHRF288-11 %inh with CHRF288-11 (CHRF288-11 %inh, 10 µM) is given as 5.114%.
In the case of `COc1cccc(OC)c1C(=O)N[C@@H]1C(=O)N2[C@@H]1SC(C)(C)[C@@H]2C(=O)O` [SJ000285650-3, METHICILLIN SODIUM], in the experiment on M07e, the M07e %inh was -0.3426%. Besides, the MV4-11 %inh in the experiment on MV4-11 is on record as -1.181%. The U937 %inh with U937 is 1.642%. Moreover, in the experiment with CMK, the CMK %inh is given as -1.148%. Also, in the experiment with CMS, the CMS %inh is recorded as -3.883%. The MOLM-13 %inh in the experiment with MOLM-13 is -0.5712%. The ML-2 %inh in the experiment on ML-2 is listed as -0.07595%. Further, the CHRF288-11 %inh in the experiment on CHRF288-11 is on record as 120.3%.
For the molecule `O=Cc1c2[nH]c3ccccc3c2cc2[nH]c3ccccc3c12` [SJ000561043-1, 6-FORMYLINDOLO [3,2-B] CARBAZOLE], the M07e %inh in the experiment on M07e was 3.515%. In the experiment on MV4-11, the MV4-11 %inh is listed as 15.88%. The U937 %inh in the experiment with U937 is on record as -0.0231%. Moreover, the CMK %inh with CMK was 0.1175%. Further, the CMS %inh with CMS is given as 2.828%. In addition, in the experiment on MOLM-13, the MOLM-13 %inh is listed as 1.501%. Further, in the experiment with ML-2, the ML-2 %inh is on record as 1.695%. Moreover, the CHRF288-11 %inh with CHRF288-11 worked out at 8.34%.
In the case of `N#Cc1ccc(Oc2nccc(-c3c(-c4ccc(F)cc4)ncn3C3CCNCC3)n2)cc1` [SJ000573110-1, JB27026-057C1], in the experiment on M07e, the M07e %inh turned out to be 7.948%. In the experiment on MV4-11, the MV4-11 %inh is -1.125%. For the same molecule, the U937 %inh in the experiment with U937 is on record as -2.466%. For the same molecule, the CMK %inh in the experiment on CMK is -0.241%. Also, in the experiment on CMS, the CMS %inh is recorded as -2.544%. Moreover, the MOLM-13 %inh with MOLM-13 is listed as 1.125%. Moreover, the ML-2 %inh in the experiment with ML-2 came out at 1.756%. In the experiment on CHRF288-11, the CHRF288-11 %inh is reported as 0.2466%.
For the molecule `CCN[C@H]1C[C@H](C)S(=O)(=O)c2sc(S(N)(=O)=O)cc21` [SJ000287570-2, DORZOLAMIDE HYDROCHLORIDE], the M07e %inh in the experiment on M07e is listed as -0.4811%. The MV4-11 %inh with MV4-11 is -1.46%. For the same molecule, the U937 %inh in the experiment on U937 turned out to be 2.321%. In addition, the CMK %inh with CMK was determined as 0.1634%. Further, the CMS %inh in the experiment on CMS is -2.24%. Further, the MOLM-13 %inh in the experiment with MOLM-13 was 5.665%. The ML-2 %inh with ML-2 is reported as -0.8167%. Further, in the experiment on CHRF288-11, the CHRF288-11 %inh is given as -4.447%.
In the case of `CCCCCCCCCCCCCCCCCCCCCCO` [SJ000565168-1, 1-DOCOSANOL (BEHENYL ALCOHOL)], the M07e %inh in the experiment with M07e is 3.056%. In addition, the MV4-11 %inh in the experiment with MV4-11 was -0.7251%. Also, in the experiment with U937, the U937 %inh is listed as -0.3827%. Further, the CMK %inh in the experiment with CMK is -5.554%. For the same molecule, the CMS %inh with CMS was -0.803%. Further, the MOLM-13 %inh with MOLM-13 is -4.024%. Further, the ML-2 %inh in the experiment on ML-2 was -0.3569%. Also, in the experiment on CHRF288-11, the CHRF288-11 %inh worked out at 5.263%.
As to `CC(=O)N1CCC(Nc2ncc3cc(Oc4ccc(F)cc4F)c(=O)n(C)c3n2)CC1` [SJ000580990-1], the M07e %inh in the experiment on M07e turned out to be 1.958%. In the experiment on MV4-11, the MV4-11 %inh is 0.8846%. Also, in the experiment with U937, the U937 %inh is 4.841%. Besides, in the experiment with CMK, the CMK %inh was found to be 3.354%. Also, the CMS %inh in the experiment with CMS stood at 0.4119%. The MOLM-13 %inh in the experiment with MOLM-13 was -1.534%. Also, the ML-2 %inh with ML-2 is -1.665%. In addition, the CHRF288-11 %inh in the experiment with CHRF288-11 was found to be 0.9354%.
With `CC(C)[C@H](NC(=O)[C@H](CCCNC(=N)N)NC(=O)N[C@@H](Cc1ccccc1)C(=O)O)C(=O)N[C@H](C=O)CCCNC(=N)N` [SJ000772410-1, ANTIPAIN, DIHYDROCHLORIDE] ({Phe-CO}-Arg-Val-Arg-aldehyde), in the experiment on M07e, the M07e %inh is -0.5062%. Also, the MV4-11 %inh in the experiment with MV4-11 is on record as -1.834%. In addition, the U937 %inh in the experiment with U937 is listed as -3.748%. The CMK %inh with CMK is reported as -5.865%. The CMS %inh in the experiment on CMS came out at 2.317%. Besides, in the experiment with MOLM-13, the MOLM-13 %inh is on record as -3.916%. The ML-2 %inh in the experiment on ML-2 is 0.8211%. The CHRF288-11 %inh in the experiment on CHRF288-11 is on record as 4.85%.
Regarding `COc1cc2ncn(-c3cc(OCc4ccccc4S(C)(=O)=O)c(C#N)s3)c2cc1OC` [SJ000573295-1, U24235/171/40 | IKK-3 INHIBITOR IX | CAY10576], the M07e %inh with M07e is listed as 3.197%. Also, the MV4-11 %inh in the experiment with MV4-11 is given as 0.8968%. For the same molecule, the U937 %inh with U937 worked out at 1.496%. In addition, in the experiment on CMK, the CMK %inh is -4.233%. Also, the CMS %inh in the experiment with CMS is -0.09194%. In the experiment with MOLM-13, the MOLM-13 %inh is -1.258%. For the same molecule, the ML-2 %inh with ML-2 was found to be 2.593%. In the experiment on CHRF288-11, the CHRF288-11 %inh came to 3.431%.
Consider `C=CC1=C(C(=O)O)N2C(=O)[C@@H](NC(=O)/C(=N\OCC(=O)O)c3csc(N)n3)[C@H]2SC1` [SJ000287284-2, CEFIXIME], for which, in the experiment with M07e, the M07e %inh is recorded as -4.21%. In addition, the MV4-11 %inh in the experiment on MV4-11 was -3.36%. In addition, in the experiment on U937, the U937 %inh worked out at 0.1666%. Also, in the experiment on CMK, the CMK %inh is 0.8991%. The CMS %inh in the experiment with CMS was -2.931%. Moreover, the MOLM-13 %inh with MOLM-13 came out at 0.1743%. Also, the ML-2 %inh in the experiment with ML-2 is -0.1874%. In addition, in the experiment with CHRF288-11, the CHRF288-11 %inh is recorded as -7.075%.
For the molecule `COc1cccc(-n2cnc3c(N/N=C/c4ccncc4)ncnc32)c1` [SJ000573055-1, U17791/62/2], in the experiment with M07e, the M07e %inh is 2.779%. Also, the MV4-11 %inh with MV4-11 worked out at 22.16%. Moreover, the U937 %inh in the experiment with U937 turned out to be 6.107%. In addition, the CMK %inh in the experiment with CMK is on record as 9.137%. Besides, the CMS %inh in the experiment with CMS was 0.1507%. For the same molecule, the MOLM-13 %inh in the experiment with MOLM-13 amounted to 29.19%. In addition, the ML-2 %inh with ML-2 is reported as -0.9344%. In the experiment on CHRF288-11, the CHRF288-11 %inh is 0.9652%.
For the molecule `Cn1cc(C2=C(n3ccc4ccccc43)C(=O)NC2=O)c2ccccc21` [SJ000581055-1], the M07e %inh with M07e is recorded as -0.4303%. In addition, the MV4-11 %inh in the experiment on MV4-11 is -2.255%. The U937 %inh with U937 is -2.193%. In addition, the CMK %inh with CMK is -4.048%. Moreover, the CMS %inh with CMS came to 4.23%. For the same molecule, in the experiment on MOLM-13, the MOLM-13 %inh is recorded as -2.803%. For the same molecule, the ML-2 %inh in the experiment with ML-2 is on record as -0.8882%. In addition, in the experiment on CHRF288-11, the CHRF288-11 %inh stood at 24.92%.
`Nc1c(C(=O)c2cccc(CCS(N)(=O)=O)c2)cnn1-c1ccc(F)cc1` [SJ000581104-1]: the M07e %inh with M07e came to 6.935%. Also, the MV4-11 %inh with MV4-11 is given as 1.774%. Besides, the U937 %inh with U937 is given as 0.2995%. In the experiment with CMK, the CMK %inh is on record as 1.701%. The CMS %inh with CMS was 3.265%. The MOLM-13 %inh in the experiment with MOLM-13 is on record as -0.2243%. Besides, in the experiment with ML-2, the ML-2 %inh is reported as 1.884%. Moreover, in the experiment on CHRF288-11, the CHRF288-11 %inh is given as -1.775%.
On to `CCc1nccc2c1nc(-c1nonc1N)n2CC` [SJ000573228-1, DW100508-159A1], for which the M07e %inh with M07e is listed as -1.816%. Also, the MV4-11 %inh in the experiment on MV4-11 is given as 4.392%. The U937 %inh in the experiment with U937 is listed as 6.241%. In the experiment with CMK, the CMK %inh was found to be 3.989%. Moreover, the CMS %inh with CMS is -0.9805%. Further, the MOLM-13 %inh in the experiment on MOLM-13 was determined as 4.708%. In the experiment on ML-2, the ML-2 %inh stood at 3.812%. Moreover, the CHRF288-11 %inh in the experiment on CHRF288-11 was 7.841%.
